The source of these data is paper PMC11173104, “Synthesis and Antioxidant Activity of N-Benzyl-2-[4-(aryl)-1H-1,2,3-triazol-1-yl]ethan-1-imine Oxides” (International Journal of Molecular Sciences, 2024).

Series [1] can be described thus: Reducing activity (RA): interaction with the stable free radical DPPH. The note with it: 100 µM. How it is done:
DPPH is a stable free radical, advantageous for testing compounds in an ethanolic solution, which in its oxidized form presents a maximum absorbance at about 517 nm. The DPPH method is independent of the molecule’s polarity. […] Nitrones 10b, 10c, and 10d highly interact with DPPH (64.5–81%) after 20 min, whereas 10a presents a lower value. In general, the insertion of a substituent increases the reducing activity (RA). […] It seems that an acceptor, such as a fluorine atom, with small molar refractivity (MR) in the para position offers antioxidant ability. […] RA is not influenced by lipophilicity within this nitrones group. The interaction values are increased for all after 60 min (78–81%), showing time dependency. For the sake of comparison, NDGA was used as a standard reference compound.
To an ethanolic solution of DPPH (0.05 mM) in absolute ethanol, 10 µL from a stock solution (10 mM) in the DMSO of the compounds was added. The mixture was shaken vigorously and allowed to stand for 20 min or 60 min; absorbance at 517 nm was determined spectrophotometrically and the percentage of activity was calculated. All tests were undertaken on three or four replicates and the results were averaged (Table 1). NDGA was used as a reference compound.

Series [2] is described as follows: Inhibition of AAPH-induced linoleic acid lipid peroxidation (ILP). The note with it: 100 µM, 37 °C, pH 7.4. The source says:
In our studies, the water-soluble azo AAPH was used as a thermal free radical initiator to induce the oxidative changes of linoleic acid to conjugated diene hydroperoxide. All nitrones except for 10c presented inhibition values (75–87%) lower than the common standard Trolox (93%) (Table 1). […] Lipophilicity seems to play a significant role related to a positive result since the inserted methyl group in compound 10b (75%) increases the lipophilicity of compound 10d driving it to higher inhibition (87%).
Ten microliters of the 16 mM linoleic acid sodium salt solution were added to the UV cuvette containing 0.93 mL of the 0.05 M phosphate buffer, pH 7.4 prethermostated at 37 °C. The oxidation reaction was initiated at 37 °C under air by the addition of 50 μL of the 40 mM AAPH solution. Oxidation was carried out in the presence of 10 μL of the compounds’ stock 10 mM solution in DMSO, in the assay. Lipid oxidation was measured in the presence of the same level of DMSO. The rate of oxidation at 37 °C was recorded as the absorption values at 234 nm and compared to Trolox (Table 1).

Series [3] has as its target T1, soybean LOX (Glycine max, UniProt P08170).
T1 construct: purchased Aldrich Chemical Co., Milwaukee, WI, USA
T1 sequence (P08170 1-839): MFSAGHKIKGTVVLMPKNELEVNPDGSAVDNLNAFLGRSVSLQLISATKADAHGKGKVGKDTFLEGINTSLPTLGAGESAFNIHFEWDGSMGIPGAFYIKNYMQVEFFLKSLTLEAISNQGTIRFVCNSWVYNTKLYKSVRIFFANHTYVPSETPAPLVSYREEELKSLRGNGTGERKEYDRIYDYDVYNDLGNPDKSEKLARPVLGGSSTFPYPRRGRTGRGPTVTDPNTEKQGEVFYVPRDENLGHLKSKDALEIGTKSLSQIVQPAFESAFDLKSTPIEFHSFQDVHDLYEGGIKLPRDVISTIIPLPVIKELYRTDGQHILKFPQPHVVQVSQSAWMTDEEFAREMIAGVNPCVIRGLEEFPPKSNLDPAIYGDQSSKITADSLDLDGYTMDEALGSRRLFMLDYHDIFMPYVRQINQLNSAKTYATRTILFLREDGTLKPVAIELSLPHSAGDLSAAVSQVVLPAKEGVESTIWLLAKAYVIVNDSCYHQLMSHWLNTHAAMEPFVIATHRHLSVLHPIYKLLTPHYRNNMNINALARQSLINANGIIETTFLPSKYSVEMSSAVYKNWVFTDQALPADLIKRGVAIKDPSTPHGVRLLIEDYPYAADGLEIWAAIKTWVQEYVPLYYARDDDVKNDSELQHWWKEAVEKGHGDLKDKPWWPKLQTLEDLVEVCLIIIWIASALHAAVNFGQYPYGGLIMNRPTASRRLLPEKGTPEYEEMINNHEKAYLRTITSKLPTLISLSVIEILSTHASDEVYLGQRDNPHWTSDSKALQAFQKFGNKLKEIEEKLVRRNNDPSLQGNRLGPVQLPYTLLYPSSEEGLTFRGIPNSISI
As to the kind of experiment: Soybean LOX inhibition in vitro (UV absorbance-based). The series is classed as biochemical. The settings on record: for IC50: Tris pH 9, sodium linoleate. The source says: The appropriate stimulation of neutrophils cleaves arachidonic acid (AA) from membrane phospholipids, producing leukotrienes through lipoxygenase. Leukotriene B4 (LTB4) is a potent mediator of inflammation, considered to be important in the pathogenesis of neutrophil-mediated inflammatory diseases with a marked relation to the severity of cardiovascular diseases, stroke, and cancer. The enzyme lipoxygenase catalyzes the first two steps in the metabolism of AA, which is cleaved from membrane phospholipids to leukotrienes (LTB4). LTB4 generation is important in the pathogenesis of neutrophil-mediated inflammatory diseases.
The tested compounds dissolved in DMSO were incubated at rt with sodium linoleate (0.1 mL) and 0.2 mL of the enzyme solution (1/9 × 10^−4 w/v in saline) in buffer Tris pH 9.

The nature of series [4]: ABTS•+ decolorization assay in ethanolic solution. The settings on record: 100 µM; 734 nm, 1 min. How it is done:
ABTS^•+ was produced according to the described procedure as follows. An ABTS stock solution in water (7 mM) was mixed with potassium persulfate (2.45 mM) and left in a dark at room temperature for 12–16 h before use. A total of 10 µL of the investigated compounds were added to ethanol together with the cationic radical. The results were taken at 734 nm, after 1 min of the mixing procedure. Trolox was used as a positive standard (Table 1).

The nature of series [5]: Competition with DMSO for hydroxyl radicals. The settings on record: 100 µM; Fe3+/ascorbic acid, 37 °C, 30 min. How it is done:
Hydroxyl (^•OH) free radical is counted as the most toxic. As a result, it reacts with important biological molecules such as DNA, lipids, or carbohydrates. We found it interesting to test the scavenging activity of the compounds in competition with DMSO.
The hydroxyl radicals were produced by the Fe^3+/ascorbic acid system and detected by the determination of the formaldehyde produced from the oxidation of DMSO. EDTA (0.1 mM), Fe^3+ (167 μM), DMSO (33 mM) in phosphate buffer (50 mM, pH 7.4), the tested compounds (100 µM) and ascorbic acid (10 mM) were inserted, mixed, and incubated in test tubes at 37 °C for 30 min. The reaction was stopped by CCl3COOH (17% w/v) and the % scavenging activity of the nitrones for hydroxyl radicals was recorded. Trolox was used as a positive control (Table 1).

Details of series [6]: method as in PMID 36670898. The note with it: previous work; cited from earlier work.

With `CC(Cc1ccc(O)c(O)c1)C(C)Cc1ccc(O)c(O)c1` (stereo not drawn) [NDGA, nordihydroguaiaretic acid, reference compound], in series [1], the “RA (%) 20 min” value is listed as 88% and the “RA (%) 60 min” value was determined as 96%.
In turn, `[O-][N+](=CCn1cc(-c2ccccc2)nn1)Cc1ccccc1` [Nitrone 10a, N-Benzyl-2-(4-phenyl-1H-1,2,3-triazol-1-yl)ethan-1-imine Oxide] came in with a melting point of 134 to 136 °C. The “ILP (%)” value in series [2] is on record as 81%. The molecule also had an IC50 in series [3] of 85 µM. Moreover, in series [1], the “RA (%) 20 min” value came to 57% and the “RA (%) 60 min” value worked out at 78%. In addition, in series [4], the “ABTS•+ (%)” value is on record as 8%. Also, in series [5], the “Scavenging Activity for HO• (%)” value was “no”.
On to `[O-][N+](=CCn1cc(-c2ccc(F)cc2)nn1)Cc1ccccc1` [Nitrone 10b, N-Benzyl-2-[4-(4-fluorophenyl)-1H-1,2,3-triazol-1-yl]ethan-1-imine Oxide], for which the melting point was 129 to 131 °C. Also, in series [2], the “ILP (%)” value was 75%. In addition, in series [3], inhibition was half-maximal at 62.5 µM (IC50). Moreover, in series [1], the “RA (%) 20 min” value is recorded as 81/81% and the “RA (%) 60 min” value is recorded as 81/81%. Besides, in series [4], the “ABTS•+ (%)” value came out at 46%. For the same molecule, the “Scavenging Activity for HO• (%)” value in series [5] is on record as “no”.
`[O-][N+](=CCn1cc(-c2ccc(F)cc2F)nn1)Cc1ccccc1` [Nitrone 10c, N-Benzyl-2-[4-(2,4-difluorophenyl)-1H-1,2,3-triazol-1-yl]ethan-1-imine Oxide] gave a melting point of 112 to 113 °C. In series [3], this molecule registered an IC50 of 10 µM. For the same molecule, in series [1], the “RA (%) 20 min” value is recorded as 79/79% and the “RA (%) 60 min” value is on record as 79/79%. In addition, the “ABTS•+ (%)” value in series [4] came out at 23%. Also, in series [5], the “Scavenging Activity for HO• (%)” value is “no”.
The molecule `Cc1cc(-c2cn(CC=[N+]([O-])Cc3ccccc3)nn2)ccc1F` [Nitrone 10d, N-Benzyl-2-[4-(4-fluoro-3-methylphenyl)-1H-1,2,3-triazol-1-yl]ethan-1-imine Oxide] showed a melting point of 131 to 133 °C. Further, the “ILP (%)” value in series [2] was determined as 87%. In series [3] (at 100 µM), this molecule displayed an inhibition at 100 µM of 45%. In series [1], the “RA (%) 20 min” value was found to be 64.4% and the “RA (%) 60 min” value is 79.5%. In addition, the “ABTS•+ (%)” value in series [4] is listed as 23%. Further, in series [5], the “Scavenging Activity for HO• (%)” value is recorded as “no”.
Consider `Cc1c(C)c2c(c(C)c1O)CCC(C)(C(=O)O)O2` (stereo not drawn) [Trolox, reference compound], for which the “ILP (%)” value in series [2] turned out to be 93%. For the same molecule, the “hydroxyl radical scavenging (%)” value in series [6] was 88%. Moreover, in series [4], the “ABTS•+ (%)” value came to 91%. Besides, the “Scavenging Activity for HO• (%)” value in series [5] amounted to 73%.
